SMILES strings stand for the structures.

The test deals with T1, full-length beta-Catenin (Uniprot ID P35222) (Homo sapiens, UniProt P35222).
T1 construct: 10 nM full-length beta-Catenin (Uniprot ID P35222)
T1 sequence (P35222 1-781): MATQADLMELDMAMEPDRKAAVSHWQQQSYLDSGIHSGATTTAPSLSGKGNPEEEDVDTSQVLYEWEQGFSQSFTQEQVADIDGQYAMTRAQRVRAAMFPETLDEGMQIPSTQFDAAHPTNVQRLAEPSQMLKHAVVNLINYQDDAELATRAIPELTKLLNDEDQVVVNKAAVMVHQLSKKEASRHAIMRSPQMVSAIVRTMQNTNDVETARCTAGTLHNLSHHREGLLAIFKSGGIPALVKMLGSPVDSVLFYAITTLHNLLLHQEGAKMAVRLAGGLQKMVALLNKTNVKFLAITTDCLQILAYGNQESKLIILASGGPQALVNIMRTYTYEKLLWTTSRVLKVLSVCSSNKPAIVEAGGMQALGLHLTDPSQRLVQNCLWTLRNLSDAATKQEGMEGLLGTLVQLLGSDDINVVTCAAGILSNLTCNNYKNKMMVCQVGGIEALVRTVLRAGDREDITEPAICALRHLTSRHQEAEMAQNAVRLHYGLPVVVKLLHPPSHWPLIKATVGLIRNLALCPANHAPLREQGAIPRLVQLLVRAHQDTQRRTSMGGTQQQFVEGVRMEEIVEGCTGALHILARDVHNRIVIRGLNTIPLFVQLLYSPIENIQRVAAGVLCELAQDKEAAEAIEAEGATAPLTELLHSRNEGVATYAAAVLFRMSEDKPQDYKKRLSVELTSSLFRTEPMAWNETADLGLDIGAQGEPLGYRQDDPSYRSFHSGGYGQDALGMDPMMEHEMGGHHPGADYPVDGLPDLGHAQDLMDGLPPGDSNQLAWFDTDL
The experiment in a line: Fluorescence polarization IC50 (beta-catenin / 5FAM-TCF4 10-53 competition). The class given is binding. Conditions: fluorescence polarization; read-out: beta-Catenin FP IC50. A general note: Fluorescence polarisation rises when a labelled molecule tumbles more slowly, as on binding a larger partner.
As to `CC(=O)N1CCC[C@]12CC=CCCCC1(CCCC=CCCCOC(=O)N3CC[C@@](C(=O)N[C@@H](Cc4ccsc4)C(=O)N[C@@H](Cc4csc5ccccc45)C(=O)N[C@@H](CCC(N)=O)C(N)=O)(C3)NC(=O)[C@H](CC(C)C)NC(=O)[C@H](Cc3ccccc3)NC(=O)[C@H](CCCN3CCN(C)CC3)NC(=O)[C@H](C)NC(=O)[C@H](CC(=O)O)NC(=O)[C@H](CC(=O)O)NC1=O)NC(=O)[C@H](CC(C)(C)C)NC(=O)[C@H](CC(=O)O)NC2=O` (stereo partly drawn) [I-1503, Ac-PL3-Asp-Npg-B5-Asp-Asp-Ala-MePpzNva-Phe-Leu-PyrS2-3Thi-BztA-Gln-NH2], the IC50 (commonly the concentration needed to halve the response being measured) turned out to be 38 nM. As for `CC(=O)N1CCC[C@]12CC=CCCCC1(CCCC=CCCCOC(=O)N3CC[C@@](C(=O)N[C@@H](Cc4ccsc4)C(=O)N[C@@H](Cc4csc5ccccc45)C(=O)N[C@@H](CCC(N)=O)C(N)=O)(C3)NC(=O)[C@H](CC(C)C)NC(=O)[C@H](Cc3ccccc3)NC(=O)[C@H](CCN3CCN(C)CC3)NC(=O)[C@H](C)NC(=O)[C@H](CC(=O)O)NC(=O)[C@H](CC(=O)O)NC1=O)NC(=O)[C@H](CC(C)(C)C)NC(=O)[C@H](CC(=O)O)NC2=O` (stereo partly drawn) [I-1506, Ac-PL3-Asp-Npg-B5-Asp-Asp-Ala-MePpzAbu-Phe-Leu-PyrS2-3Thi-BztA-Gln-NH2], the IC50 was determined as 89 nM. For `CC(=O)N1CCC[C@]12CC=CCCCC1(CCCC=CCCCOC(=O)N3CC[C@@](C(=O)N[C@@H](Cc4ccsc4)C(=O)N[C@@H](Cc4csc5ccccc45)C(=O)N[C@@H](CCC(N)=O)C(N)=O)(C3)NC(=O)[C@H](CC(C)C)NC(=O)[C@H](Cc3ccccc3)NC(=O)[C@H](CC(=O)N3CCN(C)CC3)NC(=O)[C@H](C)NC(=O)[C@H](CC(=O)O)NC(=O)[C@H](CC(=O)O)NC1=O)NC(=O)[C@H](CC(C)(C)C)NC(=O)[C@H](CC(=O)O)NC2=O` (stereo partly drawn) [I-1508, Ac-PL3-Asp-Npg-B5-Asp-Asp-Ala-MePpzAsn-Phe-Leu-PyrS2-3Thi-BztA-Gln-NH2], the 50% inhibitory concentration (IC50) was determined as 87 nM.

Take `CC(=O)N1CCC[C@]12CC=CCCCC1(CCCC=CCCCOC(=O)N3CC[C@@](C(=O)N[C@@H](Cc4ccsc4)C(=O)N[C@@H](Cc4csc5ccccc45)C(=O)N[C@@H](CCC(N)=O)C(N)=O)(C3)NC(=O)[C@H](CC(C)C)NC(=O)[C@H](Cc3ccccc3)NC(=O)[C@H](C)NC(=O)[C@H](C)NC(=O)[C@H](CC(=O)O)NC(=O)[C@H](CC(=O)O)NC1=O)NC(=O)[C@H](Cc1ccccc1)NC(=O)[C@H](CC(=O)O)NC2=O` (stereo partly drawn) [I-1509, Ac-PL3-Asp-Phe-B5-Asp-Asp-Ala-Ala-Phe-Leu-PyrS2-3Thi-BztA-Gln-NH2]: the IC50 came to 11 nM. `CC(=O)N1CCC[C@]12CC=CCCCC1(CCCC=CCCCOC(=O)N3CC[C@@](C(=O)N[C@@H](Cc4ccsc4)C(=O)N[C@@H](Cc4csc5ccccc45)C(=O)N[C@@H](CCO)C(N)=O)(C3)NC(=O)[C@H](CC(C)C)NC(=O)[C@H](Cc3ccccc3)NC(=O)[C@H](C)NC(=O)[C@H](C)NC(=O)[C@H](CC(=O)O)NC(=O)[C@H](CC(=O)O)NC1=O)NC(=O)[C@H](CO)NC(=O)[C@H](CC(=O)O)NC2=O` (stereo partly drawn) [I-1514, Ac-PL3-Asp-Ser-B5-Asp-Asp-Ala-Ala-Phe-Leu-PyrS2-3Thi-BztA-Hse-NH2]: the IC50 turned out to be 27 nM. In the case of `CC(=O)N1CCC[C@]12CC=CCCCC1(CCCC=CCCCOC(=O)N3CC[C@@](C(=O)N[C@@H](Cc4ccsc4)C(=O)N[C@@H](Cc4csc5ccccc45)C(=O)N[C@@H](CCO)C(N)=O)(C3)NC(=O)[C@H](CC(C)C)NC(=O)[C@H](Cc3ccccc3)NC(=O)[C@H](C)NC(=O)[C@H](C)NC(=O)[C@H](CC(=O)O)NC(=O)[C@H](CC(=O)O)NC1=O)NC(=O)[C@H](CC(N)=O)NC(=O)[C@H](CC(=O)O)NC2=O` (stereo partly drawn) [I-1518, Ac-PL3-Asp-Asn-B5-Asp-Asp-Ala-Ala-Phe-Leu-PyrS2-3Thi-BztA-Hse-NH2], the IC50 was 23 nM.

Turning to `CC(=O)N1CCC[C@]12CC=CCCCC1(CCCC=CCCCCCC[C@@](C)(C(=O)N[C@@H](Cc3ccccc3)C(=O)N[C@@H](Cc3csc4ccccc34)C(=O)N[C@@H](CCC(N)=O)C(N)=O)NC(=O)[C@H](CC(C)C)NC(=O)[C@H](Cc3ccccc3)NC(=O)[C@H](C)NC(=O)[C@H](C)NC(=O)[C@H](CCC(=O)O)NC(=O)[C@H](CC(=O)O)NC1=O)NC(=O)[C@H](CCC(C)C)NC(=O)[C@H](CC(=O)O)NC2=O` (stereo partly drawn) [I-1536, Ac-PL3-Asp-Hleu-B5-Asp-Glu-Ala-Ala-Phe-Leu-S8-Phe-BztA-Gln-NH2], the IC50 worked out at 42 nM.

As to `CC(=O)N1CCC[C@]12CC=CCCCC1(CCCC=CCCCCCC[C@@](C)(C(=O)N[C@@H](Cc3ccccc3)C(=O)N[C@@H](Cc3csc4ccccc34)C(=O)N[C@@H](CCC(N)=O)C(N)=O)NC(=O)[C@H](CCC(N)=O)NC(=O)[C@H](Cc3ccccc3)NC(=O)[C@H](C)NC(=O)[C@H](C)NC(=O)[C@H](CCC(=O)O)NC(=O)[C@H](CC(=O)O)NC1=O)NC(=O)[C@H](CCC(N)=O)NC(=O)[C@H](CC(=O)O)NC2=O` (stereo partly drawn) [I-1540, Ac-PL3-Asp-Gln-B5-Asp-Glu-Ala-Ala-Phe-Gln-S8-Phe-BztA-Gln-NH2], the IC50 worked out at 17 nM. For the compound `CC(=O)N1CCC[C@]12CC=CCCCC1(CCCC=CCCCCCC[C@@](C)(C(=O)N[C@@H](Cc3ccccc3)C(=O)N[C@@H](Cc3csc4ccccc34)C(=O)N[C@@H](CCC(N)=O)C(N)=O)NC(=O)[C@H](CC(C)C)NC(=O)[C@H](Cc3ccccc3)NC(=O)[C@H](C)NC(=O)[C@H](C)NC(=O)[C@H](CCC(=O)O)NC(=O)[C@H](CC(=O)O)NC1=O)NC(=O)[C@H](CCC(N)=O)NC(=O)[C@H](CC(=O)O)NC2=O` (stereo partly drawn) [I-1541, Ac-PL3-Asp-Gln-B5-Asp-Glu-Ala-Ala-Phe-Leu-S8-Phe-BztA-Gln-NH2], the IC50 is 39 nM.

Consider `CC(=O)N1CCC[C@]12CC=CCCCC1(CCCC=CCCCOC(=O)N3CC[C@@](C(=O)N[C@@H](Cc4ccsc4)C(=O)N[C@@H](Cc4csc5ccccc45)C(=O)N[C@@H](CCC(N)=O)C(N)=O)(C3)NC(=O)[C@H](CC(N)=O)NC(=O)[C@H](Cc3ccccc3)NC(=O)[C@H](C)NC(=O)[C@H](C)NC(=O)[C@H](CCC(N)=O)NC(=O)[C@H](CCC(N)=O)NC1=O)NC(=O)[C@H](CC(C)(C)C)NC(=O)[C@H](CC(=O)O)NC2=O` (stereo partly drawn) [I-1558, Ac-PL3-Asp-Npg-B5-Gln-Gln-Ala-Ala-Phe-Asn-PyrS2-3Thi-BztA-Gln-NH2], for which the IC50 was determined as 678 nM. The result for `CC(=O)N1CCC[C@]12CC=CCCCC1(CCCC=CCCCOC(=O)N3CC[C@@](C(=O)N[C@@H](Cc4ccsc4)C(=O)N[C@@H](Cc4csc5ccccc45)C(=O)N[C@@H](CCC(N)=O)C(N)=O)(C3)NC(=O)[C@H](CC(N)=O)NC(=O)[C@H](Cc3ccccc3)NC(=O)[C@H](C)NC(=O)[C@H](C)NC(=O)[C@H](CC(N)=O)NC(=O)[C@H]([C@@H](C)O)NC1=O)NC(=O)[C@H](CC(C)(C)C)NC(=O)[C@H](CC(=O)O)NC2=O` (stereo partly drawn) [I-1559, Ac-PL3-Asp-Npg-B5-Thr-Asn-Ala-Ala-Phe-Asn-PyrS2-3Thi-BztA-Gln-NH2] reads 9680 nM; that for `CC(=O)N1CCC[C@]12CC=CCCCC1(CCCC=CCCCOC(=O)N3CC[C@@](C(=O)N[C@@H](Cc4ccsc4)C(=O)N[C@@H](Cc4csc5ccccc45)C(=O)N[C@@H](CCC(N)=O)C(N)=O)(C3)NC(=O)[C@H](CC(N)=O)NC(=O)[C@H](Cc3ccccc3)NC(=O)[C@H](C)NC(=O)[C@H](C)NC(=O)[C@H](CC(N)=O)NC(=O)[C@H](CCC(N)=O)NC1=O)NC(=O)[C@H](CC(C)(C)C)NC(=O)[C@H](CC(=O)O)NC2=O` (stereo partly drawn) [I-1560, Ac-PL3-Asp-Npg-B5-Gln-Asn-Ala-Ala-Phe-Asn-PyrS2-3Thi-BztA-Gln-NH2], 368 nM. For `CC(=O)N1CCC[C@]12CC=CCCCC1(CCCC=CCCCOC(=O)N3CC[C@@](C(=O)N[C@@H](Cc4ccsc4)C(=O)N[C@@H](Cc4csc5ccccc45)C(=O)N[C@@H](CCC(N)=O)C(N)=O)(C3)NC(=O)[C@H](CC(N)=O)NC(=O)[C@H](Cc3ccccc3)NC(=O)[C@H](C)NC(=O)[C@H](C)NC(=O)[C@H](CC(N)=O)NC(=O)[C@H](CO)NC1=O)NC(=O)[C@H](CC(C)(C)C)NC(=O)[C@H](CC(=O)O)NC2=O` (stereo partly drawn) [I-1561, Ac-PL3-Asp-Npg-B5-Ser-Asn-Ala-Ala-Phe-Asn-PyrS2-3Thi-BztA-Gln-NH2], the IC50 amounted to 2600 nM. Turning to `CC(=O)N1CCC[C@]12CC=CCCCC1(CCCC=CCCCOC(=O)N3CC[C@@](C(=O)N[C@@H](Cc4ccsc4)C(=O)N[C@@H](Cc4csc5ccccc45)C(=O)N[C@@H](CCC(N)=O)C(N)=O)(C3)NC(=O)[C@H](CC(N)=O)NC(=O)[C@H](Cc3ccccc3)NC(=O)[C@H](C)NC(=O)[C@H](C)NC(=O)[C@H](CC(N)=O)NC(=O)[C@H](CC(C)C)NC1=O)NC(=O)[C@H](CC(C)(C)C)NC(=O)[C@H](CC(=O)O)NC2=O` (stereo partly drawn) [I-1562, Ac-PL3-Asp-Npg-B5-Leu-Asn-Ala-Ala-Phe-Asn-PyrS2-3Thi-BztA-Gln-NH2], the IC50 amounted to 5020 nM. On to `CC(=O)N1CCC[C@]12CC=CCCCC1(CCCC=CCCCOC(=O)N3CC[C@@](C(=O)N[C@@H](Cc4ccsc4)C(=O)N[C@@H](Cc4csc5ccccc45)C(=O)N[C@@H](CCC(N)=O)C(N)=O)(C3)NC(=O)[C@H](CC(N)=O)NC(=O)[C@H](Cc3ccccc3)NC(=O)[C@H](C)NC(=O)[C@H](C)NC(=O)[C@H](CC(N)=O)NC(=O)[C@H](CC(C)C)NC1=O)NC(=O)[C@H](CC(C)(C)C)NC(=O)[C@H](CC(=O)O)NC2=O` (stereo partly drawn) [I-1563, Ac-PL3-Asp-Npg-B5-Leu-Asn-Ala-Ala-Phe-Asn-PyrS2-3Thi-BztA-Gln-NH2], for which the half-inhibitory concentration (IC50) stood at 2850 nM.

These data come from patent US20240116985A1, “STAPLED PEPTIDES AND METHODS THEREOF” (priority 2020, published 2024).
